Article PMC9530242, “Cryo-EM structure-based selection of computed ligand poses enables design of MTA-synergic PRMT5 inhibitors of better potency” (Communications Biology, 2022)
Values joined by “and” are separate entries in the source; they are usually repeats but may differ in a detail not shown here. Equal entries are not always repeated. Where two headings read alike, the source gives them in different places.

Key:
PRMT5:MEP50 [1] = target: T1, PRMT5:MEP50 (Homo sapiens, UniProt O14744); assay: MTase-Glo methyltransferase enzymatic inhibition assay (methylation of H4 peptide); format: biochemical; details: 100 nM PRMT5:MEP50, 10 µM SAM, 2 µM histone H4 peptide (1-21), n = 3
T1 construct: full-length human PRMT5 (residues 1–637, NP_006100); FLAG; made in house; host or cells: Sf9 insect cells (Bac-to-Bac baculovirus)
T1 sequence (O14744 whole entry, the tested form may be a part): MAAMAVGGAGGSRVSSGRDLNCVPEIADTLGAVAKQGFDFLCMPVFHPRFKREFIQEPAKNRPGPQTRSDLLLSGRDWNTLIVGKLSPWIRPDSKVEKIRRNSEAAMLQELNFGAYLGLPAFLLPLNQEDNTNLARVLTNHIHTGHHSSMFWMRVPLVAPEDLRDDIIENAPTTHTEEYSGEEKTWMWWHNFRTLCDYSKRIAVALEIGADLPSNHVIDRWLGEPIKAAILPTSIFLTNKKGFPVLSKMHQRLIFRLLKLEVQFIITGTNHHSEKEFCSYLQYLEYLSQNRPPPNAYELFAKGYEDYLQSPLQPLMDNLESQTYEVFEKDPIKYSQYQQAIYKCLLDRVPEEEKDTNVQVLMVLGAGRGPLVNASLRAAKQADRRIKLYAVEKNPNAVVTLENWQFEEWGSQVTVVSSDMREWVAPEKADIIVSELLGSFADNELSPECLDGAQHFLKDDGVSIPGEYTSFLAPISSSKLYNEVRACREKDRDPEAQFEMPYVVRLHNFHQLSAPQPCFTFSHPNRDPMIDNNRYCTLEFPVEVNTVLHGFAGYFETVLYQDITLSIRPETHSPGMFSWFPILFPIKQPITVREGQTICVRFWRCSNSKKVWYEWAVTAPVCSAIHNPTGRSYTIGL
T1 sequence (Q9BQA1 2-342 partner limits assumed): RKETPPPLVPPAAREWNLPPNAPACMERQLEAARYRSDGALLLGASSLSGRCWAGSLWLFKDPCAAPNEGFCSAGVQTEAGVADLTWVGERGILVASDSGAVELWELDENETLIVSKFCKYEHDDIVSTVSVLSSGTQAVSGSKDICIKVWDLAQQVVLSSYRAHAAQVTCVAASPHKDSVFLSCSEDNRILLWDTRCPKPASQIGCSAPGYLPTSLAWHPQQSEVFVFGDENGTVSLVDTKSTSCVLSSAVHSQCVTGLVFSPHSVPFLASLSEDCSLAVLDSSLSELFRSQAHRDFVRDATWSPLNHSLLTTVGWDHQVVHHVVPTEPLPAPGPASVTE
Experimental: Recombinant PRMT5:MEP50 was purified to biochemical homogeneity from sf9 cells (Supplementary Fig. 1). Inhibition of PRMT5 activity (methylation of H4 peptide) was monitored by measuring luminescence from a MTase-Glow detection reagent.
PRMT5:MEP50 protein complex was prepared as described by Antonysamy, S., et al.[39]. Briefly, full-length human PRMT5 (residues 1–637, NP_006100) and human MEP50 (residues 2–342, NP_077007) were co-expressed in Sf9 cells using a Bac-to-Bac expression system (Invitrogen). The cells were harvested and lysed. […]
11-2 F was serially diluted by 5-fold from 500 µM to 6.4 nM in DMSO then added into reaction buffer (30 mM Tris-HCl at pH 7.4, 500 mM NaCl, 2 mM MgCl2, 2 mM TCEP, 0.1% (wt/vol) BSA and 0.01% (vol/vol) Tween-20) with final DMSO concentration at 5% (vol/vol). […] After shaking for 2 min and incubation at room temperature for 30 min, 20 µl room temperature MTase-Glo Detection Solution was added and mixed well before incubation for another 30 min and luminescence recording. Luminescence was measured in a Synergy Neo2 HTS multimode microplate reader (BioTek). […] Data are analyzed in GraphPad Prism 8. For inhibitor studies, IC50 was determined by nonlinear regression (curve fitting) using the equation for the sigmoidal dose response (variable slope).

PRMT5:MEP50 [2] = target: T1, PRMT5:MEP50; assay: Surface plasmon resonance (SPR) binding study
Experimental: PRMT5:MEP50 protein complex was prepared as described by Antonysamy, S., et al.[39]. Briefly, full-length human PRMT5 (residues 1–637, NP_006100) and human MEP50 (residues 2–342, NP_077007) were co-expressed in Sf9 cells using a Bac-to-Bac expression system (Invitrogen). The cells were harvested and lysed. After removal of cell debris, supernatants were collected for FLAG-affinity chromatography (Sigma; A2220) and fractionated by size exclusion chromatography in a 10/300 Superose 6 column (GE Life Sciences). The purified PRMT5:MEP50 complex was characterized by SDS-PAGE and sedimentation velocity analytical ultracentrifugation (SV-AUC) using a ProteomeLab™XL-I system (Beckman Coulter; Supplementary Fig. 1). Protein samples were concentrated to 12 mg/mL in a buffer containing 10 mM HEPES at pH 7.5, 150 mM NaCl, 10% (vol/vol) glycerol and 2.0 mM DTT and were stored at −80 °C until the time of use.
Binding affinity measurements were conducted in a Reichert2SPR instrument (Ametek) at 25 °C. PRMT5:MEP50 proteins were directly immobilized onto a 500,000 Da carboxymethyl dextran sensor chip at pH 5.5 using a standard amine-coupling approach. The small molecule analyte (11-2 F as an example) was injected at a flow rate of 30 μL/min of different concentrations in the running buffer (10 mM HEPES pH 7.4, 150 mM NaCl, 3.0 mM EDTA, 0.005% v/v Tween-20, and 5% DMSO). The association and dissociation times were set to be 1 min. […] The dissociation time for 11-2 F in MTA-containing running buffer was elongated to be 3 min to achieve complete dissociation. Sensorogram data were processed using the TraceDrawer software package to calculate the equilibrium dissociation constant KD, the association rate constant kon and the dissociation rate constant koff.

[3] = system: SDMA from PRMT5 activity in MDA-MB-231 cells; assay: Cell-based assay of SDMA by western blotting (MTA-synergy in cultured cells); details: Homo sapiens, MDA-MB-231, 96 h, read-out: IC50, inhibition of SDMA production
Text: The above analysis highlighted three principles that should be considered to enhance PRMT5 inhibition by 11-2F analogs. (1) It is important to retain the quinoline ring backbone to maintain the positive cooperativity with MTA. (2) The pi-stacking interactions of Trp579 and Phe327 with the quinoline ring may be enhanced to keep the inhibitor properly oriented, which could be achieved by introducing small groups (-F, or -CH3, or -NH3^+) to the ring. (3) The cyclo-alkylated indole ring of 11-2F is relatively flexible and may be stabilized by introducing H-bonds or electrostatic interactions with the binding pocket, especially with the residues on the flexible loop. […] Three 11-2F analogs predicted to have higher potency introduce more interactions with the binding pockets (Table 2; Supplementary Figs. 6–8, and Supplementary Tables 5–7). […] In the binding pocket, the 2,4-di-NH2-quinazoline of 11-9 F forms H-bonds with E444, E435, and S439, and its aromatic ring is sandwiched between the sidechains of Phe327 and Trp579. […]
MDA-MB-231 cells were seeded at 1.0 × 10^6 cells/dish and allowed to adhere overnight. […] The protein concentrations were determined using the BCA Protein Assay kit (Pierce #23227). […] After three washes with the TBST buffer, the membrane was analyzed using ECL Western blotting detection reagents (Pierce #34096) and imaged in a ChemiDoc MP imaging system (Bio-Rad). […]

IC50 (PRMT5:MEP50 [1]; read-out: IC50, inhibition of PRMT5:MEP50 enzyme activity) [nM] | IC50 (PRMT5:MEP50 [1]; read-out: IC50, inhibition of PRMT5 enzyme activity) [nM] | apparent positive coupling coefficient between 11-2F and MTA (PRMT5:MEP50 [2]; KD without MTA vs with 25 μM MTA) | Kd (PRMT5:MEP50 [2]; PRMT5:MEP50 saturated with 25 μM MTA) | Kd (PRMT5:MEP50 [2]; PRMT5:MEP50 saturated with 25 μM SAH) | Kd (PRMT5:MEP50 [2]; PRMT5:MEP50 saturated with 25 μM SAM) | koff (PRMT5:MEP50 [2]; saturated with 25 μM MTA) [s⁻¹] | kon (PRMT5:MEP50 [2]; saturated with 25 μM MTA) [M⁻¹ s⁻¹] | koff (PRMT5:MEP50 [2]; saturated with 25 μM SAH) [s⁻¹] | kon (PRMT5:MEP50 [2]; saturated with 25 μM SAH) [M⁻¹ s⁻¹] | koff (PRMT5:MEP50 [2]; saturated with 25 μM SAM) [s⁻¹] | kon (PRMT5:MEP50 [2]; saturated with 25 μM SAM) [M⁻¹ s⁻¹] | Kd (PRMT5:MEP50 [2]; without MTA (no cofactor)) [nM] | koff (PRMT5:MEP50 [2]; without MTA (no cofactor)) [s⁻¹] | kon (PRMT5:MEP50 [2]; without MTA (no cofactor)) [M⁻¹ s⁻¹] | IC50 ([3]; 0 μM additional MTA (black trace)) [µM] | IC50 ([3]; 5.0 μM MTA (red trace)) [µM] | SMILES
~730 | 730 ± 200 | ~ 166 | ~82 nM and 82.1 nM | 1600 nM and 1630 nM | 380 nM and 375 nM | 0.0202 | 246000 | 0.112 | 75700 | 0.019 | 50700 | ~13600 | 0.0844 | 6190 | – | – | Nc1ccc2ccc(CNC(=O)c3ccc4c(c3)c3c(n4CCO)CCCC3)cc2n1 [11-2F, N-[(2′-aminoquinoline)-7′-methyl]-[9-(2-hydroxyethyl)-5,6,7,8-tetrahydro-carbazole]-3-carboxamide]
– | – | – | – | – | – | – | – | – | – | – | – | – | – | – | 32.4 | 2.4 | CCn1c2c(c3cc(C(=O)NCc4ccc5c(N)nc(N)nc5c4)ccc31)CCCC2 [11-9F, N-[(2′,4′-diaminoquinazoline)-7′-methyl]-[9-ethyl-5,6,7,8-tetrahydro-carbazole]-3-carboxamide]
